These results are taken from patent publication US7507860B2 (Pfizer Inc., priority 2004, dated 2009).

Experiment [1] deals with T1, human androgen receptor (hAR) (Homo sapiens, UniProt P10275).
T1 construct: made in house; host or cells: baculovirus/Sf9 insect cells (crude extract)
T1 sequence (P10275 1-920): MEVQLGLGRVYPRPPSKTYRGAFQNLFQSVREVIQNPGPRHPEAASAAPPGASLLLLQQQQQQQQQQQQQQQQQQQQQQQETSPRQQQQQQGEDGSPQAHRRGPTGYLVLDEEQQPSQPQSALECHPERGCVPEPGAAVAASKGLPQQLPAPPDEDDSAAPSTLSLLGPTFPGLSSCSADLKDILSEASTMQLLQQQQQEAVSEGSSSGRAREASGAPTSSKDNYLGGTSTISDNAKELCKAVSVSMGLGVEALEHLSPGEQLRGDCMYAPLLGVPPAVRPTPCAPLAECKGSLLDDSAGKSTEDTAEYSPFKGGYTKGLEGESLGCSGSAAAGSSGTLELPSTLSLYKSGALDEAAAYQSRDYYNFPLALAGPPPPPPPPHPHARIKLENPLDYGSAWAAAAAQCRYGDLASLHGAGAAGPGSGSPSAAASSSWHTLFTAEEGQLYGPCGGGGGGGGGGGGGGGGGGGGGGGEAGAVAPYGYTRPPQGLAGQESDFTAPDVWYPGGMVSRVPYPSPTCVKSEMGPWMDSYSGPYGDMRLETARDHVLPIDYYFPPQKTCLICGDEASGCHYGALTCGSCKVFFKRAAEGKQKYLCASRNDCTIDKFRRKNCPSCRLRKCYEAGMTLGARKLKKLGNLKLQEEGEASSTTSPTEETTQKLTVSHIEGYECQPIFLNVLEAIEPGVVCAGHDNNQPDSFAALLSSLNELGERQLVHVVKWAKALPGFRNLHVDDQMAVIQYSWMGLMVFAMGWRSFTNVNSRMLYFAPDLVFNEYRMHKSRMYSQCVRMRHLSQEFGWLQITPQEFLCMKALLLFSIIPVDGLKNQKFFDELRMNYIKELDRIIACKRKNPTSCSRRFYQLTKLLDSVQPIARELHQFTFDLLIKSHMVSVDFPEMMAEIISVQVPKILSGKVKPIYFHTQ
As to the kind of experiment: Competitive binding analysis on baculovirus/Sf9 generated hAR extracts with 3H-DHT tracer. To be noted: hAR extract, 1 nM 3H-DHT, one hour at 4° C, mean of multiple tests; for pIC50: read-out: AR Binding IC50; for IC50: AR Binding IC50 (nM). The method, boiled down: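 Baculovirus/Sf9-expressed hAR extract incubated with hydroxylapatite, 1 nM 3H-DHT and decreasing compound concentrations for 1 h at 4 °C, then washed three times to remove unbound tracer. Bound 3H-DHT compared with no-competitor maximum; affinity given as concentration inhibiting half of maximum binding, mean of multiple tests.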

Another experiment deals with T2, androgen receptor (Homo sapiens, UniProt P10275).
T2 sequence (P10275 1-920 Q868H): T1 sequence (P10275 1-920) with Q868H
The experiment in a line: AR antagonist cell assay (MDA-MB453-MMTV clone 54-19 luciferase reporter, 100 pM DHT). It is filed as cell-based. A digest of the protocol: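 MDA-MB453 cells stably carrying an MMTV-ARE firefly luciferase reporter were plated overnight at 10,000/well in phenol-red-free, charcoal-stripped serum medium. Cells were stimulated with 100 pM DHT (final) for 17 hr at 37 °C, and AR antagonism was read as luciferase signal; values are means of multiple tests.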
For orientation: In a reporter assay the amount or activity of a reporter protein is the signal.

The mark [2] stands for this setting: MDA-MB453-MMTV clone 54-19, inhibition of 100 pM DHT induction, 17 hr; mean of multiple tests; read-out: AR Cell IC50.
The mark [3] stands for this setting: read-out: AR Cell IC50; MDA-MB453-MMTV clone 54-19, inhibition of 100 pM DHT induction, 17 hr; mean of multiple tests.

Positions count from the first letter of the chain named. pIC50: −log10 of the molar value. Read-outs that look alike come from different tables or passages of the source.

The term pIC50 denotes the IC50 on a negative log10 scale, so that one unit is a factor of ten. Consider `Cc1ccccc1CNC(=O)C(CC(C)C)Oc1ccc(C#N)c(C(F)(F)F)c1` (centres unmarked) [Example 38, 2-(4-Cyano-3-trifluoromethyl-phenoxy)-4-methyl-pentanoic acid-2-methyl-benzylamide], for which the pIC50 in experiment [1] was 7.82; on androgen receptor (setting [2]), below 6.00.
The corresponding values for `CCCC(Oc1ccc(C#N)c(C(F)(F)F)c1)C(=O)NC(C)c1ccc(OC)cc1` (centres unmarked) [Example 113, 2-(4-Cyano-3-trifluoromethyl-phenoxy)-pentanoic acid [1-(4-methoxy-phenyl)-ethyl]-amide] are 6.18 and 6.17.
The corresponding values for `CC(C)CC(Oc1ccc(C#N)c(C(F)(F)F)c1)C(=O)NCc1ccc2c(c1)CCO2` (centres unmarked) [Example 25, 2-(4-Cyano-3-trifluoromethyl-phenoxy)-4-methyl-pentanoic acid (2,3-dihydro-benzofuran-5-yl-methyl)-amide] are 7.17 and 6.10.
As for `CC(C)CC(Oc1ccc(C#N)c(C(F)(F)F)c1)C(=O)N[C@H](C)c1ccc(O)cc1` (stereo in doubt) [Example 117, 2-(4-Cyano-3-trifluoromethyl-phenoxy)-4-methyl-pentanoic acid [1-(4-hydroxy-phenyl)-ethyl]-amide], the pIC50 is 6.94 in experiment [1] and 7.72 at androgen receptor (setting [3]).
Turning to `CC(C)CNC(=O)C(CC(C)C)Oc1ccc(C#N)c(C(F)(F)F)c1` (centres unmarked) [Example 8, 2-(4-Cyano-3-trifluoromethyl-phenoxy)-4-methyl-pentanoic acid isobutyl-amide], the figures for the pIC50 (in experiment [1]; at androgen receptor (setting [2])) were 7.24 and 6.27, respectively.
For `CCCCC(Oc1ccc(C#N)c(C(F)(F)F)c1)C(=O)NCc1ccccc1` (centres unmarked) [Example 91, 2-(4-Cyano-3-trifluoromethyl-phenoxy)-hexanoic acid benzylamide], the results for the pIC50 (in experiment [1]; at androgen receptor (setting [2])) were 7.15 and 6.27, respectively.
For `CC(C)CC(Oc1ccc(C#N)c(C(F)(F)F)c1)C(=O)NCc1ccc2c(c1)OCO2` (centres unmarked) [Example 24, 2-(4-Cyano-3-trifluoromethyl-phenoxy)-4-methyl-pentanoic acid (benzo[1,3]dioxol-5-yl-methyl)-amide], in that order: 7.25 and 6.10.
For `CC(C)C(Oc1ccc(C#N)c(C(F)(F)F)c1)C(=O)NCc1ccccc1` (centres unmarked) [Example 92, N-Benzyl-2-(4-Cyano-3-trifluoromethyl-phenoxy)-3-methyl-butyramide], in that order: 6.46 and 6.25.
As to `CCCC(Oc1ccc(C#N)c(C(F)(F)F)c1)C(=O)NCc1ccc2c(c1)OCO2` (centres unmarked) [Example 29, 2-(4-Cyano-3-trifluoromethyl-phenoxy)-pentanoic acid (benzo[1,3]dioxol-5-yl-methyl)-amide], the pIC50 in experiment [1] is 6.74; on androgen receptor (setting [2]), below 6.00.
On to `CCCC(Oc1ccc(C#N)c(C(F)(F)F)c1)C(=O)NC1CCc2ccccc21` (centres unmarked) [Example 57, 2-(4-Cyano-3-trifluoromethyl-phenoxy)-pentanoic acid indan-1-yl-amide], for which the figures for the pIC50 (in experiment [1]; on androgen receptor (setting [2])) were 6.84 and 6.25, respectively.
Consider `COc1ccc([C@H](C)NC(=O)C(CC(C)C)Oc2ccc(C#N)c(C(F)(F)F)c2)cc1` (stereo in doubt) [Example 121, 2-(4-Cyano-3-trifluoromethyl-phenoxy)-4-methyl-pentanoic acid [1-(4-methoxy-phenyl)-ethyl]-amide], for which the negative logarithm of the IC50 (pIC50) was 6.84 in experiment [1] and 6.80 at androgen receptor (setting [2]).
The corresponding values for `COc1ccc(CNC(=O)C(CC(C)C)Oc2ccc(C#N)c(C(F)(F)F)c2)cc1` (centres unmarked) [Example 73, 2-(4-Cyano-3-trifluoromethyl-phenoxy)-4-methyl-pentanoic acid-4-methoxy-benzylamide] are 7.04 and 6.37.
The term IC50 denotes the point on the concentration scale where inhibition reaches its midpoint. Regarding `CC(C)C[C@@H](Oc1ccc(C#N)c(C(F)(F)F)c1)C(=O)NCc1ccccc1` [Example 94, (R)-2-(4-Cyano-3-trifluoromethyl-phenoxy)-4-methyl-pentanoic acid benzylamide], the IC50 in experiment [1] came to 66 nM. Moreover, the pIC50 on androgen receptor (setting [2]) was 6.85.
As for `CC(C)CCNC(=O)C(CC(C)C)Oc1ccc(C#N)c(C(F)(F)F)c1` (centres unmarked) [Example 22, 2-(4-Cyano-3-trifluoromethyl-phenoxy)-4-methyl-pentanoic acid (3-methyl-butyl)amide], the negative-log IC50 (pIC50) is 6.75 in experiment [1] and below 6.00 on androgen receptor (setting [2]).
For the compound `CCCC(Oc1ccc(C#N)c(C(F)(F)F)c1)C(=O)NCCc1ccc(O)cc1` (centres unmarked) [Example 66], in experiment [1], the IC50 is 151 nM. On androgen receptor (setting [2]), the pIC50 was 7.11.
In the case of `COc1cccc(CNC(=O)C(CC(C)C)Oc2ccc(C#N)c(C(F)(F)F)c2)c1` (centres unmarked) [Example 33, 2-(4-Cyano-3-trifluoromethyl-phenoxy)-4-methyl-pentanoic acid-3-methoxy-benzylamide], the pIC50 in experiment [1] is 7.21; on androgen receptor (setting [2]), 6.06.
Take `CCC[C@@H](Oc1ccc(C#N)c(C(F)(F)F)c1)C(=O)NCc1ccccc1C` [Example 96, (R)-2-(Cyano-3-trifluoromethyl-phenoxy)-pentanoic acid 2-methyl-benzylamide]: the IC50 in experiment [1] is 95 nM. In addition, the pIC50 on androgen receptor (setting [2]) is 6.86.
As for `CCC[C@H](Oc1ccc(C#N)c(Cl)c1)C(=O)NCc1ccccc1` [Example 104, (S)-2-(3-Chloro-4-cyano-phenoxy)-pentanoic acid benzylamide], the pIC50 in experiment [1] was 6.62; at androgen receptor (setting [3]), 8.15.
In the case of `COc1ccccc1NC(=O)C(CC(C)C)Oc1ccc(C#N)c(C(F)(F)F)c1` (centres unmarked) [Example 87, 2-(4-Cyano-3-trifluoromethyl-phenoxy)-4-methyl-pentanoic acid (2-methoxy-phenyl)-amide], the pIC50 in experiment [1] was 6.92; at androgen receptor (setting [2]) it was below 6.00.
As to `CCC[C@@H](Oc1ccc(C#N)c(C(F)(F)F)c1)C(=O)NCc1ccccc1` [Example 95, (R)-2-(4-Cyano-3-trifluoromethyl-phenoxy)-pentanoic acid benzylamide], in experiment [1], the IC50 was 126 nM. The negative logarithm of the IC50 (pIC50) on androgen receptor (setting [2]) is 7.49.
For `CC(C)CC(Oc1ccc(C#N)c(C(F)(F)F)c1)C(=O)NCC(c1ccccc1)N(C)C` (centres unmarked) [Example 68, 2-(4-Cyano-3-trifluoromethyl-phenoxy)-4-methyl-pentanoic acid (2-dimethylamino-2-phenyl-ethyl)-amide], the values for the negative-log IC50 (pIC50) (in experiment [1]; on androgen receptor (setting [2])) were 6.65 and below 6.00, respectively.
The corresponding values for `CCCC(Oc1ccc(C#N)c(C(F)(F)F)c1)C(=O)NCC(C)Oc1ccccc1` (centres unmarked) [Example 55, 2-(4-Cyano-3-trifluoromethyl-phenoxy)-pentanoic acid-(2-phenoxy-propyl)-amide] are 6.74 and 6.41.
